Reference: patent US10912741B2, “Prevention of liver cancer with safranal-based formulations” (United Arab Emirates University, priority 2019, dated 2021)

Experiments:
[1] = tested on: superoxide dismutase (SOD); experiment: Superoxide dismutase in liver homogenate, DEN/2-AAF hepatocarcinogenesis model; assay type: in vivo, albino Wistar rats; conditions: mean±SEM, 8 rats
Description: The experimental hepatocarcinogenesis model was developed according to a protocol by […] et al. that was adapted for our purposes. To initiate and promote hepatocarcinogenesis, diethylnitrosamine (DEN) and 2-acetylaminofluorene (2-AAF) were used, respectively. For hepatocarcinogenesis initiation in this model, a single DEN dose (200 mg/kg b.wt.) dissolved in saline was injected intraperitoneally. After initiation, all rats underwent one period of 5-days fasting, as mitotic proliferative stimuli. To promote hepatocarcinogenesis, 2-acetylaminofluorene (2-AAF) was introduced in the form of six daily intragastric doses (30 mg/kg in 1% Tween 80); two weeks after DEN treatment. […] at doses of 25 mg/kg by weight (b.wt.) and 50 mg/kg b.wt, was administrated orally to rats. These doses have been reported to suppress chemically-induced oxidative damage in rats. A total of 40 adult male albino Wistar rats were randomly divided into […] (n=8) and were subjected to different treatments. Group 1 (control) was orally administered distilled water (5 ml/kg b.wt.) throughout the experimental duration and were injected with a single dose of saline. Group 2 ([…] only) was subjected to a safranal dose (50 mg/kg b.wt.) through oral administration for the duration of the experimental period. Hepatocarcinogenesis was induced by DEN and promoted by 2-AAF, as reported previously, in group 3 (HCC). […] Glutathione (GSH) content was determined by analyzing liver homogenates, according to the method of Van Dooran et al. The assay depends on measuring yellow 5-thiol-2-nitrobenzoate absorbance at 412 nm. Glutathione-S-transferase (GST) activity was determined using the method of Habig et al. GST catalyzes the conjugation of GSH thiol group with 1-Chloro-2,4-dinitrobenzene (CDNB), which can be measured by determining the increase in absorbance at 340 nm. […] CAT decomposes hydrogen peroxide (H2O2) to oxygen and water; therefore, the activity of CAT was evaluated according to by the exponential decomposition of H2O2 at 240 nm. […] UV-160-Shimadzu recording spectrophotometer was used to record absorbances. […]

[2] = tested on: placental glutathione s-transferase (GST-p); experiment: Immunohistochemical staining of liver sections, GST-p positive foci; assay type: in vivo, albino Wistar rats
Description: The experimental hepatocarcinogenesis model was developed according to a protocol by Espandiaria et al. that was adapted for our purposes. To initiate and promote hepatocarcinogenesis, diethylnitrosamine (DEN) and 2-acetylaminofluorene (2-AAF) were used, respectively. For hepatocarcinogenesis initiation in this model, a single DEN dose (200 mg/kg b.wt.) dissolved in saline was injected intraperitoneally. After initiation, all rats underwent one period of 5-days fasting, as mitotic proliferative stimuli. To promote hepatocarcinogenesis, 2-acetylaminofluorene (2-AAF) was introduced in the form of six daily intragastric doses (30 mg/kg in 1% Tween 80); two weeks after DEN treatment.
Safranal at doses of 25 mg/kg by weight (b.wt.) and 50 mg/kg b.wt, was administrated orally to rats. These doses have been reported to suppress chemically-induced oxidative damage in rats. A total of 40 adult male albino Wistar rats were randomly divided into […] (n=8) and were subjected to different treatments. […]
For immunohistochemical staining, mounted sections were immersed in sodium citrate buffer (0.1 M, pH 6) and placed in a water bath for 15 minutes to unmask antigen epitopes. […] Ten fields were randomly selected to quantify positive cells, in individual samples (400×). […]

CC1=C(C=O)C(C)(C)CC=C1 [Safranal, 2,6,6-trimethylcyclohexa-1,3-diene-1-carbaldehyde]
SOD ([1]; HCC (DEN/2-AAF) rats + safranal high dose 50 mg/kg b.wt. oral, 12 weeks): 3.96 ± 0.13 unit/mg protein
SOD ([1]; HCC (DEN/2-AAF) rats + safranal low dose 25 mg/kg b.wt. oral, 12 weeks): 4.02 ± 0.18 unit/mg protein
SOD ([1]; safranal alone 50 mg/kg b.wt. oral, no DEN (group 2)): 4.05 ± 0.09 unit/mg protein
number of GST-p positive foci and area/cm^2 ([2]; safranal treatment after DEN exposure (groups 4-5, 25/50 mg/kg b.wt.)): significantly reduced the number of GST-p positive foci and the area/cm^2
GST-p positive foci ([2]; safranal treatment alone (group 2)): did not induce formation of such foci
